Results published in PubChem BioAssay (NCI).
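Here, GI50 denotes the concentration required for 50% inhibition of growth. At the TGI there is no net growth.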

How the values were obtained:
Experiment in all cases: growth of human tumour cells (NCI), 384-well format
MDA-MB-435 melanoma = test system: MDA-MB-435 melanoma
OVCAR-8 ovarian = test system: OVCAR-8 ovarian
786-0 renal = test system: 786-0 renal
SK-MEL-5 melanoma = test system: SK-MEL-5 melanoma
SW-620 colon = test system: SW-620 colon
A498 renal = test system: A498 renal
MDA-MB-468 breast = test system: MDA-MB-468 breast
HOP-92 NSCLC = test system: HOP-92 NSCLC
MDA-MB-231 breast = test system: MDA-MB-231 breast
UACC-62 melanoma = test system: UACC-62 melanoma
ACHN renal = test system: ACHN renal
OVCAR-5 ovarian = test system: OVCAR-5 ovarian
T-47D breast = test system: T-47D breast
HL-60(TB) leukemia = test system: HL-60(TB) leukemia
MCF7 breast = test system: MCF7 breast
HCT-116 colon = test system: HCT-116 colon
SF-295 CNS = test system: SF-295 CNS
NCI-H522 lung = test system: NCI-H522 lung
SK-OV-3 ovarian = test system: SK-OV-3 ovarian
NCI-H23 lung = test system: NCI-H23 lung
MOLT-4 leukemia = test system: MOLT-4 leukemia
NCI-H322M lung = test system: NCI-H322M lung
TK-10 renal = test system: TK-10 renal
OVCAR-3 ovarian = test system: OVCAR-3 ovarian
SN12C renal = test system: SN12C renal
KM12 colon = test system: KM12 colon
U251 glioblastoma = test system: U251 glioblastoma
CAKI-1 renal = test system: CAKI-1 renal
NCI-H460 NSCLC = test system: NCI-H460 NSCLC
HOP-62 NSCLC = test system: HOP-62 NSCLC
SNB-75 CNS = test system: SNB-75 CNS
K-562 leukemia = test system: K-562 leukemia
PC-3 prostate = test system: PC-3 prostate
OVCAR-4 ovarian = test system: OVCAR-4 ovarian
HT29 colon = test system: HT29 colon
DU-145 prostate = test system: DU-145 prostate
COLO 205 colon = test system: COLO 205 colon
SF-268 CNS = test system: SF-268 CNS
EKVX NSCLC = test system: EKVX NSCLC
SNB-19 CNS = test system: SNB-19 CNS
SK-MEL-28 melanoma = test system: SK-MEL-28 melanoma
UACC-257 melanoma = test system: UACC-257 melanoma
NCI-H226 lung = test system: NCI-H226 lung
SR leukemia = test system: SR leukemia
RXF 393 renal = test system: RXF 393 renal
HCT-15 colon = test system: HCT-15 colon
M14 melanoma = test system: M14 melanoma
SK-MEL-2 melanoma = test system: SK-MEL-2 melanoma
HS 578T breast = test system: HS 578T breast
A549 NSCLC = test system: A549 NSCLC
SF-539 CNS = test system: SF-539 CNS
IGROV1 ovarian = test system: IGROV1 ovarian
MALME-3M melanoma = test system: MALME-3M melanoma
BT-549 breast = test system: BT-549 breast
UO-31 renal = test system: UO-31 renal

Cc1ccc(C(=O)Nc2cccc(C(F)(F)F)c2)cc1Nc1nc(-c2cccnc2)nc2c1cnn2C
GI50 (MDA-MB-435 melanoma): 487 nM | TGI (MDA-MB-435 melanoma): 2390 nM | GI50 (OVCAR-8 ovarian): 1880 nM | TGI (OVCAR-8 ovarian): 4790 nM | GI50 ([…]-0 renal): 1120 nM | TGI (786-0 renal): 2410 nM | GI50 (SK-MEL-5 melanoma): 466 nM | TGI (SK-MEL-5 melanoma): 1820 nM | GI50 (SW-620 colon): 955 nM | TGI (SW-620 colon): 2260 nM | GI50 (A498 renal): 1210 nM | TGI (A498 renal): 2950 nM | GI50 (MDA-MB-468 breast): 1080 nM | TGI (MDA-MB-468 breast): 2310 nM | GI50 (HOP-92 NSCLC): 1580 nM | TGI (HOP-92 NSCLC): 5850 nM | GI50 (MDA-MB-231 breast): 181 nM | TGI (MDA-MB-231 breast): 3870 nM | GI50 (UACC-62 melanoma): 309 nM | TGI (UACC-62 melanoma): 1510 nM | GI50 (ACHN renal): 1030 nM | TGI (ACHN renal): 2510 nM | GI50 (OVCAR-5 ovarian): 1410 nM | TGI (OVCAR-5 ovarian): 8450 nM | GI50 (T-47D breast): 1290 nM | TGI (T-47D breast): 2700 nM | GI50 (HL-60(TB) leukemia): 80.6 nM | TGI (HL-60(TB) leukemia): 1280 nM | GI50 (MCF7 breast): 1310 nM | TGI (MCF7 breast): 2620 nM | GI50 (HCT-116 colon): 372 nM | TGI (HCT-116 colon): 1880 nM | GI50 (SF-295 CNS): 1720 nM | TGI (SF-295 CNS): 3150 nM | GI50 (NCI-H522 lung): 1380 nM | TGI (NCI-H522 lung): 2720 nM | GI50 (SK-OV-3 ovarian): 1880 nM | TGI (SK-OV-3 ovarian): 3940 nM | GI50 (NCI-H23 lung): 248 nM | TGI (NCI-H23 lung): 1900 nM | GI50 (MOLT-4 leukemia): 593 nM | TGI (MOLT-4 leukemia): 1890 nM | GI50 (NCI-H322M lung): 2060 nM | TGI (NCI-H322M lung): 4890 nM | GI50 (TK-10 renal): 1370 nM | TGI (TK-10 renal): 3130 nM | GI50 (OVCAR-3 ovarian): 1490 nM | TGI (OVCAR-3 ovarian): 3210 nM | GI50 (SN12C renal): 2150 nM | TGI (SN12C renal): 10300 nM | GI50 (KM12 colon): 1490 nM | TGI (KM12 colon): 2980 nM | GI50 (U251 glioblastoma): 1630 nM | TGI (U251 glioblastoma): 3240 nM | GI50 (CAKI-1 renal): 972 nM | TGI (CAKI-1 renal): 2150 nM | GI50 (NCI-H460 NSCLC): 383 nM | TGI (NCI-H460 NSCLC): 1750 nM | GI50 (HOP-62 NSCLC): 1410 nM | TGI (HOP-62 NSCLC): 3270 nM | GI50 (SNB-75 CNS): 1960 nM | TGI (SNB-75 CNS): 4280 nM | GI50 (K-562 leukemia): 12.2 nM | TGI (K-562 leukemia): 29 nM | GI50 (PC-3 prostate): 1820 nM | TGI (PC-3 prostate): 4550 nM | GI50 (OVCAR-4 ovarian): 1590 nM | TGI (OVCAR-4 ovarian): 4050 nM | GI50 (HT29 colon): 341 nM | TGI (HT29 colon): 1330 nM | GI50 (DU-145 prostate): 1710 nM | TGI (DU-145 prostate): 4340 nM | GI50 (COLO 205 colon): 522 nM | TGI (COLO 205 colon): 2220 nM | GI50 (SF-268 CNS): 1700 nM | TGI (SF-268 CNS): 4210 nM | GI50 (EKVX NSCLC): 1150 nM | TGI (EKVX NSCLC): 3080 nM | GI50 (SNB-19 CNS): 3540 nM | TGI (SNB-19 CNS): 13300 nM | GI50 (SK-MEL-28 melanoma): 319 nM | TGI (SK-MEL-28 melanoma): 1840 nM | GI50 (UACC-257 melanoma): 378 nM | TGI (UACC-257 melanoma): 1890 nM | GI50 (NCI-H226 lung): 774 nM | TGI (NCI-H226 lung): 2120 nM | GI50 (SR leukemia): 390 nM | TGI (SR leukemia): 1320 nM | GI50 (RXF 393 renal): 137 nM | TGI (RXF 393 renal): 1110 nM | GI50 (HCT-15 colon): 882 nM | TGI (HCT-15 colon): 2160 nM | GI50 (M14 melanoma): 291 nM | TGI (M14 melanoma): 1410 nM | GI50 (SK-MEL-2 melanoma): 240 nM | TGI (SK-MEL-2 melanoma): 959 nM | GI50 (HS 578T breast): 1060 nM | TGI (HS 578T breast): 2310 nM | GI50 (A549 NSCLC): 1380 nM | TGI (A549 NSCLC): 2960 nM | GI50 (SF-539 CNS): 677 nM | TGI (SF-539 CNS): 2060 nM | GI50 (IGROV1 ovarian): 782 nM | TGI (IGROV1 ovarian): 2600 nM | GI50 (MALME-3M melanoma): 222 nM | TGI (MALME-3M melanoma): 757 nM | GI50 (BT-549 breast): 1670 nM | TGI (BT-549 breast): 3660 nM | GI50 (UO-31 renal): 605 nM | TGI (UO-31 renal): 2090 nM
